From ChEMBL document CHEMBL1133669 (J Med Chem, 2000)

Columns and labels:
Carbonic anhydrase 4 = target: T1, Carbonic anhydrase 4 (Bos taurus, UniProt Q95323)
T1 sequence (Q95323 whole entry): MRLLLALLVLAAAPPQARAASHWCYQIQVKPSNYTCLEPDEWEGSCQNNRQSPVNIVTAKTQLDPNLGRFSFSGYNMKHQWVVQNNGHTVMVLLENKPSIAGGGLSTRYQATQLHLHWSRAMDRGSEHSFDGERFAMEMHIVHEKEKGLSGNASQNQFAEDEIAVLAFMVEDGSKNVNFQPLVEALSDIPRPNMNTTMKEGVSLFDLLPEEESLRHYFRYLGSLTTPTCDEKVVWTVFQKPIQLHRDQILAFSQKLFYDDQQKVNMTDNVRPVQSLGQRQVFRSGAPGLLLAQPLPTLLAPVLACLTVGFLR
Description: Inhibitory activity against bovine carbonic anhydrase IV (CA4), isolated from bovine lung microsomes

Carbonic anhydrase 1 = Carbonic anhydrase 1 (Homo sapiens, UniProt P00915)
Sequence of Carbonic anhydrase 1 (P00915 whole entry): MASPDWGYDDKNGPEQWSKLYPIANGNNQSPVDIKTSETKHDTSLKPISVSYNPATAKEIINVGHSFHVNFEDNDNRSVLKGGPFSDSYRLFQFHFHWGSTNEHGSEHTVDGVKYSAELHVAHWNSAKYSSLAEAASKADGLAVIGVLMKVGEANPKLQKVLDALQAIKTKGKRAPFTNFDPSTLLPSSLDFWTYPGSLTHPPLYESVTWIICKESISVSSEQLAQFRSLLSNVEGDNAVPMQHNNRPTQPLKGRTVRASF
Description: Inhibitory activity against human carbonic anhydrase I (CA1)

Structure (SMILES)	Ki (Carbonic anhydrase 4)	Ki (Carbonic anhydrase 1)
CCc1cc(-c2ccccc2)cc(CC)[n+]1CC(=O)Oc1ccc2nc(S(N)(=O)=O)sc2c1	0.027 µM	0.011 µM
Cc1cc(C)[n+](CC(=O)NNc2ccc(S(N)(=O)=O)cc2)c(C)c1	0.45 µM	35 µM
CC(C)c1cc(-c2ccccc2)cc(C(C)C)[n+]1CC(=O)NCCC(=O)Nc1nnc(S(N)(=O)=O)s1	0.016 µM	
CCc1cc(-c2ccccc2)cc(CC)[n+]1CC(=O)Nc1nccc(Nc2ccc(S(N)(=O)=O)cc2)n1	0.058 µM	0.045 µM
CCc1cc(-c2ccccc2)cc(CC)[n+]1CC(=O)Nc1ccc(S(N)(=O)=O)cc1F	0.039 µM	0.75 µM
CC(C)c1cc(-c2ccccc2)cc(C(C)C)[n+]1CC(=O)Nc1ccccc1S(N)(=O)=O	0.35 µM	30.5 µM
Cc1cc(-c2ccccc2)cc(C)[n+]1CC(=O)OCCOc1ccc2nc(S(N)(=O)=O)sc2c1	0.016 µM	0.009 µM
Cc1cc(-c2ccccc2)cc(C)[n+]1CC(=O)Nc1ccccc1S(N)(=O)=O	0.29 µM	25.3 µM
Cc1cc(C)[n+](CC(=O)Nc2ccc(S(N)(=O)=O)cc2I)c(C)c1	0.078 µM	0.81 µM
Cc1cc(C)[n+](CC(=O)Nc2ccc(S(=O)(=O)Nc3nnc(S(N)(=O)=O)s3)cc2)c(C)c1	0.012 µM	0.015 µM
Cc1cc(-c2ccccc2)cc(C)[n+]1CC(=O)OCc1ccc(S(N)(=O)=O)cc1	0.075 µM	1.35 µM
Cc1cc(C)[n+](CC(=O)Nc2ccc(S(=O)(=O)/N=c3/sc(S(N)(=O)=O)nn3C)cc2)c(C)c1		0.015 µM
CC(C)c1cc(-c2ccccc2)cc(C(C)C)[n+]1CC(=O)Nc1ccc(S(N)(=O)=O)cc1F	0.039 µM	0.75 µM
CCc1cc(-c2ccccc2)cc(CC)[n+]1CC(=O)NCCc1ccc(S(N)(=O)=O)cc1	0.061 µM	0.75 µM
CC(C)c1cc(-c2ccccc2)cc(C(C)C)[n+]1CC(=O)Nc1nnc(S(N)(=O)=O)s1	0.036 µM	
Cc1cc(C)[n+](CC(=O)Nc2ccc(S(N)(=O)=O)cc2Cl)c(C)c1	0.07 µM	0.68 µM
CC(C)c1cc(-c2ccccc2)cc(C(C)C)[n+]1CC(=O)Nc1cccc(S(N)(=O)=O)c1	0.345 µM	23.1 µM
CC(C)c1cc(-c2ccccc2)cc(C(C)C)[n+]1CC(=O)Nc1ccc(S(N)(=O)=O)cc1I	0.075 µM	0.63 µM
Cc1cc(-c2ccccc2)cc(C)[n+]1CC(=O)Nc1ccc(S(N)(=O)=O)cc1F	0.036 µM	0.7 µM
Cc1cc(C)[n+](CC(=O)Nc2ccc(S(=O)(=O)Nc3cccc(S(N)(=O)=O)c3)cc2)c(C)c1	0.086 µM	0.061 µM
CCc1cc(-c2ccccc2)cc(CC)[n+]1CC(=O)NCCC(=O)Nc1nnc(S(N)(=O)=O)s1	0.019 µM	
CCc1cc(-c2ccccc2)cc(CC)[n+]1CC(=O)Nc1ccccc1S(N)(=O)=O	0.335 µM	27.5 µM
Cc1cc(-c2ccccc2)cc(C)[n+]1CC(=O)NCc1ccc(S(N)(=O)=O)cc1	0.05 µM	1.25 µM
CCc1cc(-c2ccccc2)cc(CC)[n+]1CC(=O)Nc1ccc(S(N)(=O)=O)cc1	0.17 µM	15 µM

Structure (SMILES)	Ki (Carbonic anhydrase 4)	Ki (Carbonic anhydrase 1)
Cc1cc(C)[n+](CC(=O)Nc2ccccc2S(N)(=O)=O)c(C)c1	0.425 µM	32 µM
CCc1cc(-c2ccccc2)cc(CC)[n+]1CC(=O)Nc1ccc(S(N)(=O)=O)cc1Br	0.055 µM	0.615 µM
Cc1cc(-c2ccccc2)cc(C)[n+]1CC(=O)Oc1ccc2nc(S(N)(=O)=O)sc2c1	0.017 µM	0.011 µM
Cc1cc(C)[n+](CC(=O)NCCc2ccc(S(N)(=O)=O)cc2)c(C)c1	0.071 µM	0.805 µM
Cc1cc(-c2ccccc2)cc(C)[n+]1CC(=O)Nc1c(S(N)(=O)=O)cc(S(N)(=O)=O)c(Cl)c1Cl	0.031 µM	0.38 µM
CCc1cc(-c2ccccc2)cc(CC)[n+]1CC(=O)OCCOc1ccc2nc(S(N)(=O)=O)sc2c1	0.025 µM	0.01 µM
Cc1cc(C)[n+](CC(=O)OCCOc2ccc3nc(S(N)(=O)=O)sc3c2)c(C)c1	0.033 µM	0.012 µM
CCc1cc(-c2ccccc2)cc(CC)[n+]1CC(=O)Nc1ccc2nc(S(N)(=O)=O)sc2c1	0.03 µM	0.011 µM
CCc1cc(-c2ccccc2)cc(CC)[n+]1CC(=O)OCCc1ccc(S(N)(=O)=O)cc1	0.084 µM	1.5 µM
CCc1cc(-c2ccccc2)cc(CC)[n+]1CC(=O)Nc1ccc(S(=O)(=O)Nc2ccc(S(N)(=O)=O)cc2)cc1	0.063 µM	0.046 µM
Cn1nc(S(N)(=O)=O)s/c1=N/S(=O)(=O)c1ccc(N)cc1	0.0008 µM	0.001 µM
Cc1cc(C)[n+](CC(=O)Nc2ccc(S(N)(=O)=O)cc2)c(C)c1	0.19 µM	16 µM
CC(C)c1cc(-c2ccccc2)cc(C(C)C)[n+]1CC(=O)NNc1ccc(S(N)(=O)=O)cc1	0.36 µM	34 µM
CC(C)c1cc(-c2ccccc2)cc(C(C)C)[n+]1CC(=O)Nc1cc(Cl)c(S(N)(=O)=O)cc1S(N)(=O)=O	0.046 µM	0.35 µM
CC(C)c1cc(-c2ccccc2)cc(C(C)C)[n+]1CC(=O)Nc1nccc(Nc2ccc(S(N)(=O)=O)cc2)n1	0.062 µM	0.047 µM
Cc1cc(-c2ccccc2)cc(C)[n+]1CC(=O)Nc1cccc(S(N)(=O)=O)c1	0.28 µM	19.6 µM
Cc1cc(C)[n+](CC(=O)Nc2ccc(S(=O)(=O)Nc3ccc(S(N)(=O)=O)cc3)cc2)c(C)c1	0.078 µM	0.055 µM
CCc1cc(-c2ccccc2)cc(CC)[n+]1CC(=O)Nc1c(S(N)(=O)=O)cc(S(N)(=O)=O)c(Cl)c1Cl	0.035 µM	0.4 µM
Cc1cc(C)[n+](CC(=O)Nc2nnc(S(N)(=O)=O)s2)c(C)c1	0.05 µM	0.3 µM
CC(C)c1cc(-c2ccccc2)cc(C(C)C)[n+]1CC(=O)Nc1ccc(S(N)(=O)=O)cc1	0.18 µM	15 µM
Cc1cc(C)[n+](CC(=O)Nc2ccc(S(N)(=O)=O)cc2Br)c(C)c1	0.077 µM	0.8 µM
CC(C)c1cc(-c2ccccc2)cc(C(C)C)[n+]1CC(=O)OCCc1ccc(S(N)(=O)=O)cc1	0.115 µM	1.65 µM
Cc1cc(-c2ccccc2)cc(C)[n+]1CC(=O)Nc1ccc(S(=O)(=O)Nc2ccc(S(N)(=O)=O)cc2)cc1	0.054 µM	0.041 µM
Cc1cc(-c2ccccc2)cc(C)[n+]1CC(=O)Nc1ccc(S(=O)(=O)Nc2nnc(S(N)(=O)=O)s2)cc1	0.009 µM	0.01 µM

Structure (SMILES)	Ki (Carbonic anhydrase 4)	Ki (Carbonic anhydrase 1)
CCc1cc(-c2ccccc2)cc(CC)[n+]1CC(=O)NCc1ccc(S(N)(=O)=O)cc1	0.067 µM	1.4 µM
Cc1cc(C)[n+](CC(=O)/N=c2/sc(S(N)(=O)=O)nn2C)c(C)c1	0.06 µM	0.33 µM
CCc1cc(-c2ccccc2)cc(CC)[n+]1CC(=O)Nc1ccc(S(=O)(=O)Nc2cccc(S(N)(=O)=O)c2)cc1	0.06 µM	0.043 µM
Cc1cc(-c2ccccc2)cc(C)[n+]1CC(=O)Nc1ccc(S(=O)(=O)Nc2cccc(S(N)(=O)=O)c2)cc1	0.055 µM	0.038 µM
CCc1cc(-c2ccccc2)cc(CC)[n+]1CC(=O)Nc1cccc(S(N)(=O)=O)c1	0.31 µM	21.8 µM
CC(C)c1cc(-c2ccccc2)cc(C(C)C)[n+]1CC(=O)NCCc1ccc(S(N)(=O)=O)cc1	0.07 µM	0.775 µM
CC(C)c1cc(-c2ccccc2)cc(C(C)C)[n+]1CC(=O)Nc1c(S(N)(=O)=O)cc(S(N)(=O)=O)c(Cl)c1Cl	0.049 µM	0.47 µM
Cc1cc(-c2ccccc2)cc(C)[n+]1CC(=O)NCCc1ccc(S(N)(=O)=O)cc1	0.046 µM	0.72 µM
CC(C)c1cc(-c2ccccc2)cc(C(C)C)[n+]1CC(=O)Nc1ccc(S(N)(=O)=O)cc1Br	0.07 µM	0.645 µM
Cc1cc(C)[n+](CC(=O)Nc2c(S(N)(=O)=O)cc(S(N)(=O)=O)c(Cl)c2Cl)c(C)c1	0.067 µM	0.55 µM
Cc1cc(C)[n+](CC(=O)Nc2nccc(Nc3ccc(S(N)(=O)=O)cc3)n2)c(C)c1	0.069 µM	0.052 µM
CCc1cc(-c2ccccc2)cc(CC)[n+]1CC(=O)Nc1ccc(S(N)(=O)=O)cc1I	0.064 µM	0.62 µM
Cc1cc(-c2ccccc2)cc(C)[n+]1CC(=O)Nc1ccc(S(N)(=O)=O)cc1I	0.059 µM	0.61 µM
CC(C)c1cc(-c2ccccc2)cc(C(C)C)[n+]1CC(=O)Nc1ccc2nc(S(N)(=O)=O)sc2c1	0.038 µM	0.013 µM
CCc1cc(-c2ccccc2)cc(CC)[n+]1CC(=O)/N=c1/sc(S(N)(=O)=O)nn1C	0.025 µM	0.3 µM
CC(C)c1cc(-c2ccccc2)cc(C(C)C)[n+]1CC(=O)Nc1ccc(S(=O)(=O)Nc2cccc(S(N)(=O)=O)c2)cc1	0.072 µM	0.053 µM
Cc1cc(C)[n+](CC(=O)OCCc2ccc(S(N)(=O)=O)cc2)c(C)c1	0.13 µM	1.7 µM
Cc1cc(-c2ccccc2)cc(C)[n+]1CC(=O)NNc1ccc(S(N)(=O)=O)cc1	0.31 µM	26 µM
CC(C)c1cc(-c2ccccc2)cc(C(C)C)[n+]1CC(=O)Nc1ccc(S(=O)(=O)Nc2ccc(S(N)(=O)=O)cc2)cc1	0.073 µM	0.05 µM
CCc1cc(-c2ccccc2)cc(CC)[n+]1CC(=O)Nc1ccc(S(N)(=O)=O)cc1Cl	0.046 µM	0.61 µM
Cc1cc(-c2ccccc2)cc(C)[n+]1CC(=O)NCCC(=O)Nc1nnc(S(N)(=O)=O)s1	0.015 µM	
Cc1cc(C)[n+](CC(=O)Nc2cccc(S(N)(=O)=O)c2)c(C)c1	0.41 µM	24 µM
Nc1cc(C(F)(F)F)c(S(N)(=O)=O)cc1S(N)(=O)=O [2,4-DISULFAMYLTRIFLUOROMETHYLANILINE]	0.14 µM	
